Data from ChEMBL document CHEMBL3817811, “Protective effect of α-mangostin against iodixanol-induced apoptotic damage in LLC-PK1 cells” (Bioorg Med Chem Lett, 2016).
Active and inactive are the calls of the source. No cut-off for these calls is given here.

Experiments:
[1] = system: LLC-PK1; test: Cytoprotective activity against 25 mg/ml iodixanol-induced apoptosis in pig LLC-PK1 cells assessed as reduction in dead cells preincubated for 2 hrs followed by iodixanol addition measured after 3 hrs by annexin V Alexa Fluor 488/propidium iodide staining based cytometry; assay type: functional, cell-based; conditions: Sus scrofa
[2] = system: LLC-PK1; test: Cytoprotective activity against 25 mg/ml iodixanol-induced cell damage in pig LLC-PK1 cells assessed as inhibition of cleaved caspase-3 expression at 2.5 to 5 uM preincubated for 2 hrs followed by iodixanol addition measured after 3 hrs by western blot analysis; assay type: functional, cell-based; conditions: Sus scrofa
[3] = system: LLC-PK1; test: Cytoprotective activity against 25 mg/ml iodixanol-induced cell damage in pig LLC-PK1 cells assessed as restoration of cell viability at 5 uM preincubated for 2 hrs followed by iodixanol addition measured after 3 hrs by MTT assay relative to control; assay type: functional, Sus scrofa
[4] = system: LLC-PK1; test: Inhibition of ERK phosphorylation in pig LLC-PK1 cells at 2.5 to 5 uM preincubated for 2 hrs followed by iodixanol addition measured after 3 hrs by western blot analysis; assay type: cell-based; conditions: Sus scrofa
[5] = system: LLC-PK1; test: Cytoprotective activity against 25 mg/ml iodixanol-induced cell damage in pig LLC-PK1 cells assessed as inhibition of caspase-3 enzyme activity using DEVD-pNA substrate at 2.5 to 5 uM preincubated for 2 hrs followed by iodixanol addition and subsequent incubation for 3 hrs followed by substrate addition measured after 1 hr by microplate reader analysis; assay type: functional, cell-based; conditions: Sus scrofa
[6] = system: LLC-PK1; test: Cytotoxicity against pig LLC-PK1 cells assessed as reduction in cell viability at 1 to 10 uM incubated for 2 hrs by MTT assay; assay type: cell-based, Sus scrofa; conditions: llc-pk1, 2 h
[7] = system: LLC-PK1; test: Inhibition of p38 phosphorylation in pig LLC-PK1 cells at 2.5 to 5 uM preincubated for 2 hrs followed by iodixanol addition measured after 3 hrs by western blot analysis; assay type: cell-based; conditions: Sus scrofa
[8] = system: LLC-PK1; test: Inhibition of JNK phosphorylation in pig LLC-PK1 cells at 2.5 to 5 uM preincubated for 2 hrs followed by iodixanol addition measured after 3 hrs by western blot analysis; assay type: cell-based; conditions: Sus scrofa
[9] = system: LLC-PK1; test: Cytoprotective activity against 25 mg/ml iodixanol-induced cell damage in pig LLC-PK1 cells assessed as restoration of cell viability preincubated for 2 hrs followed by iodixanol addition measured after 3 hrs by MTT assay; assay type: functional, cell-based; conditions: Sus scrofa

Compound: COc1c(O)cc2oc3cc(O)c(CC=C(C)C)c(O)c3c(=O)c2c1CC=C(C)C [MANGOSTIN]
- Activity [1]: Dose-dependent effect
- inhibition [2]: Active
- Activity [3]: <=90.42%
- inhibition [4]: Active
- inhibition [5]: Active
- Activity [6]: Non-toxic
- inhibition [7]: Active
- inhibition [8]: Active
- Activity [9]: Dose-dependent effect
